Data on eight compounds can be found in US6881421B1 (Bioalliance Pharma S.A., priority 1998, dated 2005).

Series [1] in a line: Titration of progesterone/steroid content of nanoparticles by HPLC. The note with it: for Drug load: average of 3 values; for Increase in content load (number of times): PIBCA/HP CD particles versus PIBCA without HP CD; for Content of combined PIBCA and HP CD particles / Content of PIBCA nanoparticles without HP CD: average of three preparations; for Content of PIBCA nanoparticles without HP CD: reference particles. The class given is physicochemical. As to the method: (§1) The different suspensions of nanoparticles were centrifuged at 82,000 g for 30 to 40 min at 25° C. (Beckman, L5-65 Ultracentrifuge, 70.1 Ti type rotor) and resuspended in 5 ml distilled water. The suspensions were finally freeze-dried (Christ HED Freeze Drier, Germany).
To titrate the progesterone content in the nanoparticles, the freeze-dried products were diluted in acetonitrile of HPLC grade and the solutions analyzed by high performance liquid chromatography (HPLC). The HPLC system consisted of a 510 solvent delivery unit (Waters-Saint-Quentin-en-Yvelines, France), a WISP 712 automatic sampler, a column Nova-Pak C18 4 μm column (250×4.6 mm), a 486 absorbency detector which operated at 245 NM and interfaced with a 746 data module. The flow rate was 1.0 ml/min and the mobile phase made up of water and acetonitrile (40:60) for which the retention time was approximately 12 min. The results were expressed as an average of three titrations.
The different steroids were determined as in Example 6 so that the titration of these different substances was conducted under the same analytical conditions.

The nature of series [2]: Solubility of progesterone. The format is physicochemical. The settings on record: polymerization medium, aqueous with cosolvent or surfactant or cyclodextrin; diluted hydrochloric acid (pH 2.0), 1% (w/v) poloxamer 188; read-out: maximum solubility in the polymerization medium.
Series [3] in a line: In vitro release of progesterone from PIBCA/HPβCD nanoparticles. The settings on record: for progesterone released, second slower phase / progesterone released, initial rapid release: ABB pH 8.4, 37° C.; for progesterone released, initial rapid release: first hour; for progesterone released: ABB with 40% PEG 400. The class given is physicochemical. As for the experimental part: A weighed quantity of freeze-dried nanoparticles (containing 1% (w/v) of glucose) was placed in a bottle containing 15 ml of alkaline borate buffer solution (ABB) (pH 8.4) or of ABB containing esterases (25 and 100 IU) or of ABB/poly(ethyleneglycol) 400 (PEG) at 20 and 40% (v/v). The samples were magnetically stirred at 200 r/min and 37° C., and taken at predetermined intervals. The suspensions were centrifuged at 82,000 g for 30 minutes at 20° C., then the progesterone content of the supernatant is determined for all media and the HPβCD content for the PEG media. The progesterone content is determined using HPLC as described above with injection of 100 μl for the samples incubated in ABB media and 20 μl for the PEG media.
All the tests are conducted under conditions such 15 that the active ingredient concentration during the release stage is maintained below 10% saturation.

For series [4] the following is noted: cited from earlier work.
Series [5] can be described thus: Titration of cyclodextrin content of nanoparticles (phenolphthalein spectrophotometry). The class given is physicochemical. As to the method:
as §1
For quantification of HPβCD, the freeze-dried nanoparticles were hydrolyzed with 0.2 M NaOH for 12 hours, the pH adjusted to 7.0 (±0.5) and the HPBCD quantified by spectrophotometric titration of the discoloring of phenolphthalein solutions in the presence of HPβCD. Phenolphthalein formed stable, colorless inclusion complexes with cyclodextrins (CD). Consequently, the color intensity of a phenolphthalein solution in alkaline borate buffer decreased in proportion to the quantity of CD in solution.
Reference solutions were prepared by diluting mother solutions of CD in alkaline borate buffer solution with pH 10.0 containing 2% ethanol solution of 0.006 M phenolphthalein. The reference curves (λ=550 nm) are linear for CD concentrations ranging from 1 to 100 μg/ml. To the samples were added 4 parts buffer solution containing phenolphthalein and they were then tested directly.
The HPβCD was also titrated as in Example 6.

A short description of series [6]: In vitro release of HPβCD from PIBCA/HPβCD nanoparticles. The settings on record: ABB medium, 37° C.; during the first hour. The class given is physicochemical. As for the experimental part:
Study of the release of HPBCD was conducted as for progesterone in ABB medium with quantification of the CD content after ultracentrifuging, by complexation with phenolphthalein as described above. The CD concentration at 100% release was approximately 100 μg/ml.

Setting [7] is: PIBCA nanoparticles without HPβCD.
Where [8] appears, read: PIBCA/HPBCD nanoparticles (10 mg/ml HPβCD).

≈ marks a conversion by molar mass, not a printed value.

In the case of `CC(=O)O[C@]1(C(C)=O)CC[C@H]2[C@@H]3C=C(C)C4=CC(=O)CC[C@]4(C)[C@H]3CC[C@@]21C` [Megestrolacetate, megestrol acetate], in series [1] (setting [7]), the “Drug load” value stood at 0.25 mg/g. Further, in series [1], the “Increase in content load (number of times)” value (“Increase in content load” below) is on record as 5.6 number of times; the “Content of combined PIBCA and HP CD particles” value was found to be 3.64 mmol/g; the “Content of PIBCA nanoparticles without HP CD” value came to 0.65 mmol/g. Also, the “Drug load” value in series [1] (setting [8]) came out at 1.4 mg/g.

Turning to `CC(=O)S[C@@H]1CC2=CC(=O)CC[C@]2(C)[C@H]2CC[C@@]3(C)[C@@H](CC[C@@]34CCC(=O)O4)[C@H]12` [Spironolactone, spironolactone], in series [1] (setting [7]), the “Drug load” value worked out at 7.65 mg/g. Also, in series [1], the “Increase in content load” value is reported as 6.9 number of times; the “Content of combined PIBCA and HP CD particles” value is 127.23 mmol/g; the “Content of PIBCA nanoparticles without HP CD” value stood at 18.36 mmol/g. In addition, the “Drug load” value in series [1] (setting [8]) worked out at 53.0 mg/g.

In the case of `C[C@]12C=CC(=O)C=C1CC[C@@H]1[C@@H]2[C@@H](O)C[C@@]2(C)[C@H]1CC[C@]2(O)C(=O)CO` [Prednisolone, prednisolone], the “Drug load” value in series [1] (setting [7]) was determined as 0.12 mg/g; in series [1] (setting [8]), 15.5 mg/g. The “Increase in content load” value in series [1] is recorded as 129.2 number of times; in series [1] (listed as prednisolone), 129 number of times. Moreover, the “Content of combined PIBCA and HP CD particles” value in series [1] is 43.00 mmol/g. The “Content of PIBCA nanoparticles without HP CD” value in series [1] came to 0.33 mmol/g.

As for `C[C@]12CC[C@H]3[C@@H](CCC4=CC(=O)CC[C@@]43C)[C@@H]1CC[C@@H]2O` [Testosterone, testosterone], the “Drug load” value in series [1] (setting [7]) is given as 2.27 mg/g. Also, in series [1], the “Increase in content load” value is 8.6 number of times; the “Content of combined PIBCA and HP CD particles” value is 67.6 mmol/g; the “Content of PIBCA nanoparticles without HP CD” value was 7.87 mmol/g. In addition, in series [1] (setting [8]), the “Drug load” value is on record as 19.5 mg/g.

Usually solubility stands for the dissolved amount per volume that the medium holds. As to `CC(=O)[C@H]1CC[C@H]2[C@@H]3CCC4=CC(=O)CC[C@]4(C)[C@H]3CC[C@]12C` [Progesterone, progesterone], the solubility in series [2] is roughly 60 µg/mL (≈ 191 µM). Further, the “Drug load” value in series [1] (setting [7]) amounted to 0.79 mg/g; in series [1] (setting [8]), 24.0 mg/g. In addition, the “Increase in content load” value in series [1] is 27.7 number of times. In addition, the “Content of combined PIBCA and HP CD particles” value in series [1] worked out at 69.60 mmol/g. This compound displayed a progesterone content in series [1] (larger particles (170 nm)) of 10.5 µg/mg. In series [1] (prepared in the presence of HPβCD, highest content (FIG. 5)), the “progesterone content of particles” value is 45 μg/mg of particles. For the same compound, the “Content of PIBCA nanoparticles without HP CD” value in series [1] stood at 2.51 mmol/g. The compound also came in with an active ingredient content in series [1] (smallest nanoparticles (70 nm)) of 24 µg/mg. For the same compound, the “progesterone released, second slower phase” value in series [3] (70 nm nanoparticles) is given as roughly 62%; in series [3] (150 nm nanoparticles) it was “approximately 35%”. Moreover, the “progesterone released, initial rapid release” value in series [3] (70 nm nanoparticles) is recorded as roughly 34%; in series [3] (150 nm nanoparticles) it was “approximately 10%”. Also, the progesterone released entry in series [3] (first-named formulation (150 nm)) is reported as “approximately 75%”; in series [3] (second-named formulation (70 nm)) it was roughly 82%. The “quantity of released progesterone” value in series [3] (ABB with esterases (25 and 100 IU), both tested formulations) was roughly 100%. Further, the water-solubility in series [4] was 10 µg/mL.

Regarding `C#C[C@]1(O)CC[C@H]2[C@@H]3CCC4=Cc5oncc5C[C@]4(C)[C@H]3CC[C@@]21C` [Danazol, danazol], the “Drug load” value in series [1] (setting [7]) was 0.34 mg/g. In addition, in series [1], the “Increase in content load” value is listed as 32.9 number of times; the “Content of combined PIBCA and HP CD particles” value came to 33.19 mmol/g; the “Content of PIBCA nanoparticles without HP CD” value is 1.01 mmol/g. Moreover, the “Drug load” value in series [1] (setting [8]) came out at 11.2 mg/g.

Turning to `CC(O)COC[C@H]1O[C@@H]2O[C@H]3[C@H](O)[C@@H](O)[C@@H](O[C@H]4[C@H](O)[C@@H](O)[C@@H](O[C@H]5[C@H](O)[C@@H](O)[C@@H](O[C@H]6[C@H](O)[C@@H](O)[C@@H](O[C@H]7[C@H](O)[C@@H](O)[C@@H](O[C@H]8[C@H](O)[C@@H](O)[C@@H](O[C@H]1[C@H](O)[C@H]2O)O[C@@H]8COCC(C)O)O[C@@H]7COCC(C)O)O[C@@H]6COCC(C)O)O[C@@H]5COCC(C)O)O[C@@H]4COCC(C)O)O[C@@H]3COCC(C)O` (stereo partly drawn) [HPβCD, 2-hydroxypropyl-β-cyclodextrin], the “quantity of HPβCD associated with the particles” value is listed as “approximately 35%” in series [5] (equal initial masses of HPβCD and isobutylcyanoacrylate in the polymerization medium); “about 60 % of particle weight” in series [5] (maximum reached with increasing HPβCD (FIG. 3)). In series [6], the cyclodextrin released is given as roughly 100%.

On to `C[C@]12CCC(=O)C=C1CC[C@@H]1[C@@H]2[C@@H](O)C[C@@]2(C)[C@H]1CC[C@]2(O)C(=O)CO` [Hydrocortisone, hydrocortisone], for which the “Drug load” value in series [1] (setting [7]) came out at 2.19 mg/g. For the same compound, in series [1], the “Increase in content load” value is given as 7.0 number of times; the “Content of combined PIBCA and HP CD particles” value stood at 42.21 mmol/g; the “Content of PIBCA nanoparticles without HP CD” value worked out at 6.04 mmol/g. Also, in series [1] (setting [8]), the “Drug load” value was 15.3 mg/g.
